{"source": "paper PMC6583902", "about": "(Biochemistry, 2013)", "tested_on": "C. elegans Sem-5 (sex muscle five) Src-homology 3 (SH3) domain", "conditions": "stated in words", "data": [{"substance": "Ac-VPPXVPPRRRY [proline]", "values": [{"measurement": "apparent binding constant measured by ITC", "value": "only in the millimolar range"}]}]}
